Laboratory results as given in patent publication US11384060B2, “Amide compounds and use thereof” (ALPHALA CO., LTD., priority 2017, dated 2022).
Where two headings read alike, the source gives them in different places.

Key:
[1] = molecular target: T1, glucagon receptor (GCGR) (Homo sapiens, UniProt P47871); assay: I125-glucagon binding assay (competition, GCGR membrane fractions)
T1 construct: expressed in transfected cells; host or cells: CHO-K1 cells overexpressing GCGR (membrane fractions)
Procedure, shortened: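 Competition of 0.0625 nM (final) I^125-glucagon for 30 min at 25° C, after 5 min compound preincubation, using 7.5 μg/well GCGR-overexpressing CHO-K1 membranes in 50 mM Tris pH 7.4, 0.5% BSA. Filtration onto PEI-coated GF/B, micro-beta counting, and non-linear regression gave IC50.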

[2] = molecular target: T2, glucagon receptor (GCGR) overexpressed CHO-K1 cells or human primary hepatocytes (Homo sapiens, UniProt P47871); assay: Glucagon cAMP inhibition assay (Cisbio cAMP Dynamic 2 HTRF); assay type: cell-based
T2 construct: expressed in transfected cells; host or cells: GCGR overexpressed CHO-K1 cells or human primary hepatocytes (endogenous receptor)
T2 sequence (P47871 26-477): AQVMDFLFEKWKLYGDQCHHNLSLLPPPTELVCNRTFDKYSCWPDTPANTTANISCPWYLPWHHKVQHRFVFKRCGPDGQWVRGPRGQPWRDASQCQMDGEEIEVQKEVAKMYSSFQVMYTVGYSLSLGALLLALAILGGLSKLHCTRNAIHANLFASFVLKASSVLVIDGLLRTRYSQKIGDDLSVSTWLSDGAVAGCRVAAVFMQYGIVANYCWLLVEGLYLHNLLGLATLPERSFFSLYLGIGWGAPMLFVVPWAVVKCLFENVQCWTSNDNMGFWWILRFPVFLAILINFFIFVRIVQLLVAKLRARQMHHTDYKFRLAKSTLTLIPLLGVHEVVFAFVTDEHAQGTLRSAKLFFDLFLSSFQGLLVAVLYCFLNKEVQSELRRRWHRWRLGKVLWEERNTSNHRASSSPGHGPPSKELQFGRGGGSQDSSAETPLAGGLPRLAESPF
Procedure, shortened: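 HTRF read-out of glucagon-induced cAMP, with IC50 from non-linear regression. Cells (GCGR CHO-K1 or human primary hepatocytes) in HBSS/0.1% BSA/800 nM IBMX took compound dilutions for 30 min (final DMSO 1%), then EC50-level glucagon for 30 min at room temperature, then a 60 min lysis/detection step.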

[3] = competition with I125-glucagon 0.0625 nM, membrane fractions of GCGR overexpressed CHO-K1 cells
[4] = inhibition of glucagon (EC50 concentration) induced cAMP production

T1 sequence (P47871 26-477): as above

SMILES | IC50 [1] | IC50 cAMP [2] | IC50 [1, 3] | IC50 cAMP [2, 4]
CC(C)COC[C@@H](Cc1ccc(-c2ccc(C(F)(F)F)cc2)cc1)Nc1ccc(C(=O)NCCC(=O)O)cc1 [Compound 19-18] | 688 nM | 916.8 nM |  | 
CC(C)COC[C@@H](Cc1ccc(-c2ccc(OC(F)(F)F)cc2)cc1)Nc1ccc(C(=O)NCCC(=O)O)cc1 [Compound 19-19, (R)-3-(4-((1-isobutoxy-3-(4′-(trifluoromethoxy)-[1,1′-biphenyl]-4-yl)propan-2-yl)amino)benzamido)propanoic Acid] | 317 nM | 582.5 nM |  | 
CC(C)COC[C@@H](Cc1ccc(-c2ccc(Cl)cc2Cl)cc1)Nc1ccc(C(=O)NCCC(=O)O)cc1 [Compound 19-20, (R)-3-(4-((1-(2′,4′-dichloro-[1,1′-biphenyl]-4-yl)-3-isobutoxypropan-2-yl)amino)benzamido)propanoic Acid] | 1150 nM | 822.4 nM |  | 
CC(C)COC[C@@H](Cc1ccc(-c2cc3ccccc3o2)cc1)Nc1ccc(C(=O)NCCC(=O)O)cc1 [Compound 19-21, (R)-3-(4-((1-(4-(benzofuran-2-yl)phenyl)-3-isobutoxypropan-2-yl)amino)benzamido)propanoic Acid] | 269 nM | 437.3 nM |  | 
CCCOC[C@H](Cc1ccc(-c2ccc(C(F)(F)F)cc2)cc1)Nc1ccc(C(=O)NCCC(=O)O)cc1 [Compound 19-22, (S)-3-(4-((1-propoxy-3-(4′-(trifluoromethyl)-[1,1′-biphenyl]-4-yl)propan-2-yl)amino)benzamido)propanoic Acid] | 745 nM | 986.5 nM |  | 
CCCOC[C@H](Cc1ccc(-c2cccc(C(F)(F)F)c2)cc1)Nc1ccc(C(=O)NCCC(=O)O)cc1 [Compound 19-23, (S)-3-(4-((1-propoxy-3-(3′-(trifluoromethyl)-[1,1′-biphenyl]-4-yl)propan-2-yl)amino)benzamido)propanoic Acid] | 1310 nM | 1126 nM |  | 
CCCOC[C@H](Cc1ccc(-c2ccc(OC(F)(F)F)cc2)cc1)Nc1ccc(C(=O)NCCC(=O)O)cc1 [Compound 19-24, (S)-3-(4-((1-propoxy-3-(4′-(trifluoromethoxy)-[1,1′-biphenyl]-4-yl)propan-2-yl)amino)benzamido)propanoic Acid] | 512 nM | 630.4 nM |  | 
CCCOC[C@H](Cc1ccc(-c2cccc(OC(F)(F)F)c2)cc1)Nc1ccc(C(=O)NCCC(=O)O)cc1 [Compound 19-25, (S)-3-(4-((1-propoxy-3-(3′-(trifluoromethoxy)-[1,1′-biphenyl]-4-yl)propan-2-yl)amino)benzamido)propanoic Acid] | 1280 nM | 1513 nM |  | 
CCCOC[C@H](Cc1ccc(-c2cc3ccccc3o2)cc1)Nc1ccc(C(=O)NCCC(=O)O)cc1 [Compound 19-26, (S)-3-(4-((1-(4-(benzofuran-2-yl)phenyl)-3-propoxypropan-2-yl)amino)benzamido)propanoic Acid] | 592 nM | 902.8 nM |  | 
CCCOC[C@H](Cc1ccc(-c2cc3ccccc3[nH]2)cc1)Nc1ccc(C(=O)NCCC(=O)O)cc1 [Compound 19-27, (S)-3-(4-((1-(4-(1H-indol-2-yl)phenyl)-3-propoxypropan-2-yl)amino)benzamido)propanoic Acid] | 455 nM | 4952 nM |  | 
CC(C)COC[C@H](Cc1ccc(-c2cccc(C(F)(F)F)c2)cc1)Nc1ccc(C(=O)NCCC(=O)O)cc1 [Compound 19-28, (S)-3-(4-((1-isobutoxy-3-(3′-(trifluoromethyl)-[1,1′-biphenyl]-4-yl)propan-2-yl)amino)benzamido)propanoic Acid] | 872 nM | 726 nM |  | 
CC(C)COC[C@H](Cc1ccc(-c2ccccc2C(F)(F)F)cc1)Nc1ccc(C(=O)NCCC(=O)O)cc1 [Compound 19-29, (S)-3-(4-((1-isobutoxy-3-(2′-(trifluoromethyl)-[1,1′-biphenyl]-4-yl)propan-2-yl)amino)benzamido)propanoic Acid] | 2120 nM | 871 nM |  | 
CC(C)COC[C@H](Cc1ccc(-c2cccc(OC(F)(F)F)c2)cc1)Nc1ccc(C(=O)NCCC(=O)O)cc1 [Compound 19-30, (S)-3-(4-((1-isobutoxy-3-(3′-(trifluoromethoxy)-[1,1′-biphenyl]-4-yl)propan-2-yl)amino)benzamido)propanoic Acid] | 548 nM | 1104 nM |  | 
CC(C)COC[C@H](Cc1ccc(-c2cc(F)c(F)c(F)c2)cc1)Nc1ccc(C(=O)NCCC(=O)O)cc1 [Compound 19-31, (S)-3-(4-((1-isobutoxy-3-(3′,4′,5′-trifluoro-[1,1′-biphenyl]-4-yl)propan-2-yl)amino)benzamido)propanoic Acid] | 500 nM | 1341 nM |  | 
CC(C)COC[C@H](Cc1ccc(-c2cc3ccccc3o2)cc1)Nc1ccc(C(=O)NCCC(=O)O)cc1 [Compound 19-32, (S)-3-(4-((1-(4-(benzofuran-2-yl)phenyl)-3-isobutoxypropan-2-yl)amino)benzamido)propanoic Acid] | 483 nM | 1017 nM |  | 
CC(C)COC[C@H](Cc1ccc(-c2ccc(OC(F)(F)F)cc2)cc1)Nc1ccc(C(=O)NCCC(=O)O)cc1 [Compound 19-33, (S)-3-(4-((1-isobutoxy-3-(4′-(trifluoromethoxy)-[1,1′-biphenyl]-4-yl)propan-2-yl)amino)benzamido)propanoic Acid] | 284 nM | 472 nM |  | 
CC(C)COC[C@H](Cc1ccc(-c2ccc(C(F)(F)F)cc2)cc1)Nc1ccc(C(=O)NCCC(=O)O)cc1 [Compound 19-34, (S)-3-(4-((1-isobutoxy-3-(4′-(trifluoromethyl)-[1,1′-biphenyl]-4-yl)propan-2-yl)amino)benzamido)propanoic Acid] | 380 nM | 487 nM |  | 
CC(C)(C)c1ccc(-c2nnc([C@H](Cc3ccc(-c4cc5ccccc5o4)cc3)Nc3ccc(C(=O)NCCC(=O)O)cc3)o2)cc1 [Compound 20-1, (S)-3-(4-((2-(4-(benzofuran-2-yl)phenyl)-1-(5-(4-(tert-butyl)phenyl)-1,3,4-oxadiazol-2-yl)ethyl)amino)benzamido)propanoic Acid] | 201 nM | 1403 nM |  | 
CCC(C)[C@H](Nc1ccc(C(=O)NCCC(=O)O)cc1)c1nnc(-c2oc3ccccc3c2C)o1 (stereo partly drawn) [Compound 20-2, 3-(4-(((1S)-2-methyl-1-(5-(3-methylbenzofuran-2-yl)-1,3,4-oxadiazol-2-yl)butyl)amino)benzamido)propanoic Acid] | 974 nM | 22191 nM |  | 
CCC(C)[C@H](Nc1ccc(C(=O)NCCC(=O)O)cc1)c1nnc(-c2ccc(C(C)(C)C)cc2)o1 (stereo partly drawn) [Compound 20-3, 3-(4-(((1S)-1-(5-(4-(tert-butyl)phenyl)-1,3,4-oxadiazol-2-yl)-2-methylbutyl)amino)benzamido)propanoic Acid] | 801 nM | 9163 nM |  | 
CC(C)[C@H](Nc1ccc(C(=O)NCCC(=O)O)cc1)c1nnc(-c2ccc(C(C)(C)C)cc2)o1 [Compound 20-4, (S)-3-(4-((1-(5-(4-(tert-butyl)phenyl)-1,3,4-oxadiazol-2-yl)-2-methylpropyl)amino)benzamido)propanoic Acid] | 1040 nM | 4853 nM |  | 
Cc1cc(C)c(-c2ccc(C[C@H](Nc3ccc(C(=O)NCCC(=O)O)cc3)c3nnc(-c4ccc(C(C)(C)C)cc4)o3)cc2)c(C)c1 [Compound 20-5, (S)-3-(4-((1-(5-(4-(tert-butyl)phenyl)-1,3,4-oxadiazol-2-yl)-2-(2′,4′,6′-trimethyl-[1,1′-biphenyl]-4-yl)ethyl)amino)benzamido)propanoic Acid] | 4860 nM | >30000 nM |  | 
Cc1c(-c2nnc([C@H](Cc3ccc(-c4ccc(C(F)(F)F)cc4)cc3)Nc3ccc(C(=O)NCCC(=O)O)cc3)o2)oc2ccccc12 [Compound 20-6, (S)-3-(4-((1-(5-(3-methylbenzofuran-2-yl)-1,3,4-oxadiazol-2-yl)-2-(4′-(trifluoromethyl)-[1,1′-biphenyl]-4-yl)ethyl)amino)benzamido)propanoic Acid] | 2680 nM | >30000 nM |  | 
Cc1c(-c2nnc([C@H](Cc3ccc(-c4ccc(C(F)(F)F)cc4)cc3)Nc3ccc(C(=O)NCCS(=O)(=O)O)cc3)o2)oc2ccccc12 [Compound 20-7, (S)-2-(4-((1-(5-(3-methylbenzofuran-2-yl)-1,3,4-oxadiazol-2-yl)-2-(4′-(trifluoromethyl)-[1,1′-biphenyl]-4-yl)ethyl)amino)benzamido)ethane-1-sulfonic Acid] | > 30000 nM | >30000 nM |  | 
CCCC[C@@H](Cc1noc(-c2ccc(C(C)(C)C)cc2)n1)Nc1ccc(C(=O)NCCC(=O)O)cc1 [Compound 21-1, (S)-3-(4-((1-(5-(4-(tert-butyl)phenyl)-1,2,4-oxadiazol-3-yl)hexan-2-yl)amino)benzamido)propanoic Acid] |  |  | 803 nM | 170.4 nM
CCC(C)[C@@H](Cc1noc(-c2ccc(C(C)(C)C)cc2)n1)Nc1ccc(C(=O)NCCC(=O)O)cc1 (stereo partly drawn) [Compound 21-2, 3-(4-(((2R)-1-(5-(4-(tert-butyl)phenyl)-1,2,4-oxadiazol-3-yl)-3-methylpentan-2-yl)amino)benzamido)propanoic Acid] |  |  | 637 nM | 1242 nM
